This note sets out measurements from patent US7915402B2, “Antioxidant inflammation modulators: oleanolic acid derivatives with saturation in the C-ring” (Reata Pharmaceuticals, Inc., priority 2008, dated 2011).

Each structure is given as a SMILES string.

A short description of this data set: Triterpenoid levels in mouse brain after feeding in diet (LC/MS). Format: in vivo. The settings on record: CD-1 mice, 200 or 400 mg/kg diet for 3.5 days. Here is the method:
CD-1 mice were fed either 200 or 400 mg/kg diet of either TP-319 or TP-500 for 3.5 days, and TP levels in the brains of the mice were analyzed by LC/MS. The structures of TP-319 and TP-500 are shown below.

`CC1(C)CC[C@]2(C(=O)NCC(F)(F)F)CC[C@]3(C)[C@H](C(=O)C=C4[C@@]5(C)C=C(C#N)C(=O)C(C)(C)[C@@H]5CC[C@]43C)[C@@H]2C1` [TP-500]: the “level detected in mouse brain compared with CDDO-EA (TP-319)” value is given as “Higher Levels”.
